# Earlier results in patent US5122608A, “Method for the preparation of substituted and unsubstituted 2,3-pyridine and quinolinedicarboxylic acids” (priority 1990, dated 1992).
# Conditions: ionization constant; representative mineral and organic acids
row,Compound,pKa
1,O=C(O)C(Cl)(Cl)Cl [Trichloroacetic],0.5
2,CCc1ccc(S(=O)(=O)O)cc1 [p-Ethylbenzene sulfonic],0.9
